Assay results reported in US20090082453A1, “Exogenous Methyl Dihydrojasmonate for Prevention and Control of Biotic Attack in Plants” (NEW BIOLOGY, INC., priority 2007, published 2009).

Assays:
gene expression = details: tobacco plants; cited from earlier work
trypsin inhibitor = assay: Activation of trypsin inhibitor in roses (Example 6); type: in vivo, white miniature roses (Parade Rose); details: 48 hours, FIG. 6; for proteinase (trypsin) inhibitor activity: 5.0 mM foliage spray plus root drench
Description: Potted plants of white miniature roses, marketed as Parade Rose® received one of three treatments. Roses were treated by (1) spraying the foliage of each plant to the point of drip to ensure maximum coverage; and (2) pouring 50 ml of the formulation into the soil within the root zone. There were three plants per treatment. 48 hours after treatment, all leaves from the entire plant were collected and pooled for analysis of trypsin inhibitor activity. Leaf extracts were prepared by adding 25 ml of 0.4 M sodium phosphate, pH 9, extraction buffer and 3 ml of 10% Triton® X-100 and grinding in a blender. The extract was filtered through four layers of cheesecloth. One milliliter of extract was spun at 2000×g for 15 minutes at 4-degrees and the resulting supernatant was frozen until the assay could be completed.
For the trypsin assay, rose extracts were thawed and replicates of 1, 2, and 3 μl for each extract were added to trypsin assay solution containing p-toluene-sulfonyl-L-arginine methyl ester (TAME) as the trypsin substrate. The level of trypsin activity was measured and reflects trypsin inhibition by trypsin inhibitor. Data is shown in FIG. 6, a graph of the results, and is presented as the mean and SEM of % remaining trypsin activity per gram fresh weight for 1, 2, and 3 μl. In FIG. 6, lower values represent greater trypsin inhibitor activity.

Polyphenol Oxidase (PPO) = assay: Polyphenol oxidase (PPO) induction in tomato plants (Example 2); type: in vivo; details: tomato seedlings, 1.5 mM + 0.5% canola oil + 0.125% Triton X-100, 24 hours; FIG. 2
Description: Three test samples were prepared using tomato seedlings. The descriptions of the treatments given to each test sample can be found in Table 3 below.
Liquid formulations were applied by spraying three squirts to the foliage with a spray bottle. Seedlings from each treatment were isolated in plastic boxes (i.e., as in Example 1, plants given the same treatment were isolated together). Polyphenol oxidase assays were carried out on the entire foliage of each plant 24 hours after application (Stout, M. J., Brovont, R. A., and Duffey, S. S., J. Chemical Ecology 24:6, pp. 946-963, the contents of which are incorporated by reference in their entirety).
The assay procedure was as follows. Tomato leaflets were weighed and ground in 1 ml of ice-cold extraction buffer (0.1M sodium phosphate buffer, pH 7, containing 3.5% polyvinylpolypyrolidine). Following grinding, 0.4 ml of 10% Triton® X-100 was added to the leaf homogenate, mixed and centrifuged for 15 minutes at 2000×g at 4-degrees. Fifteen microliters of the resulting supernatant was added to 1 ml of PPO Assay Buffer (2.92 mM caffeic acid in pH 7 sodium phosphate buffer) and the change in absorbance at A470 was recorded every minute for 10 minutes. Change in absorbance rate (OD A470/min/g protein) reflects the rate of formation of a compound produced by the activity of PPO. […]

damping off disease = assay: Observational decrease in disease in tomato seedlings (Example 8); type: in vivo; details: 1.5 mM MDHJ, 0.5% canola oil, 0.125% Triton X-100 foliar spray; 17th day after treatment
Description: FIG. 9 is a photograph of an untreated tomato seedling, illustrating the damping off disease on the leaves;
One group of tomato seedlings was treated with a formulation comprising 1.5 mM MDHJ, 0.5% canola oil, and 0.125% Triton® X-100 by spraying the foliage until the point of dripping. Another group of tomato seedlings was left untreated. Plants from each group were isolated in respective Plexiglas boxes. Photographs of the plants were taken on the 17th day after treatment. One plant in each treatment group had died.

[1] = system: proteinase inhibitor I and II; assay: Proteinase inhibitor I and II induction in tomato seedlings, radial immunodiffusion assay, 24 h (Example 1); type: in vivo; details: 1.5 mM in water, FIG. 1
Description: Seven test samples or groups were prepared using two week old tomato seedlings. The descriptions of the treatments given to each test sample can be found in Table 2 below. Liquid formulations were applied by spraying three squirts to the foliage with a spray bottle. Eight plants per treatment (four pots per treatment, each pot containing two seedlings) were sprayed with each test formulation. Plants from each treatment were isolated in enclosed Plexiglas boxes and placed overnight in a light- and temperature-controlled growth chamber (i.e., plants given the same treatment were isolated together in a single Plexiglas box; plants given different treatments were in different boxes). Twenty-four hours after treatment, each plant was assayed for proteinase inhibitor I and II production by a radial immunodiffusion assay using anti-inhibitor antibodies (Ryan, C. A., Analytical Biochemistry 19 (1967), pp. 424-440, the contents of which are incorporated by reference in their entirety). [table] The results for each of the test samples are shown in FIG. 1, a graph in which proteinase inhibitor levels (PI-I and PI-II) are reported in micrograms of proteinase inhibitor per milliliter of leaf extract for each test sample. The two plants per pot were pooled to give one data point per pot (i.e., four data points total were collected per treatment).

Polyphenol Oxidase = assay: Activation of polyphenol oxidase in field-grown roses (Example 4); type: in vivo, 'Julia Child' roses; details: FIG. 5; for PPO activity: 5 mM + 0.5% canola oil + 0.125% Triton X-100, 44 hours, caffeic acid substrate
Description: Field grown 1-year old ‘Julia Child’ roses were treated with foliar sprays of two different formulations. Roses were treated by spraying the foliage of each plant to the point of drip to ensure maximum coverage. There were three plants per treatment. 44 hours after application, 3 young leaves from each plant (each leaf from a different stem and all leaves at the same stage of development) were collected and pooled for analysis of PPO activity as in Example 2 above, except that 0.5 ml of ice cold extraction buffer were used, followed by addition of 160 μl 10% Triton® X-100. 50 μl of the supernatant was added to 1 ml of PPO assay buffer. The formulations are set forth in Table 5 below, and the data is shown FIG. 5, a graph of PPO activity for the two formulations and an untreated control. Data are reported as mean and SEM for each treatment.

[2] = system: cell suspension cultures of E. californica; details: cited from earlier work
aphids = assay: Field study of aphid infestations in roses (Example 7); type: in vivo, aphids on 'Mr. Lincoln' roses; details: for concentration at which more efficacious against aphids: 1.5 mM vs 5 mM; for incidence of aphids on roses: foliar spray every 10-13 days, height of aphid pressure, FIGS. 7 and 8
Description: Potted roses of the cultivar ‘Mr. Lincoln’ were treated with 9 treatment samples (8 formulations and one untreated control). For each treatment sample, three plots having three plants each were treated, for a total of 9 plants per treatment. Roses were treated every 10-13 days by spraying the foliage of each plant to the point of drip to ensure maximum coverage. The plants were evaluated at approximately 10-day intervals for the number of aphids on each plant. Table 8 below includes the descriptions of the test formulations.
FIGS. 7 and 8 are two representations of the same data, taken at the height of aphid pressure. FIG. 7 is a histogram representing mean and SEM aphid counts on the roses with the various formulations. In FIG. 8, each data point represents the number of aphids on a single plant.

powdery mildew = assay: Treatment and control of powdery mildew in roses (Example 10); type: in vivo, powdery mildew on 'Mr. Lincoln' roses; details: beyond disease levels measured prior to first treatment
Description: Outdoor potted roses of the cultivar ‘Mr. Lincoln’ were treated with 9 treatment samples (8 formulations and one untreated control). For each treatment sample, three plots having three plants each were treated for a total of 9 plants per treatment. Roses were treated every 2 weeks by spraying the foliage of each plant to the point of drip to ensure maximum coverage. Plants were initially evaluated for powdery mildew incidence and severity prior to the first treatment of the trial. […] Subsequent evaluations followed every 10 days for 2 months. Evaluations consisted of evaluating 60 individual leaves per plot (20 leaves were collected from 3 rose plants per plot) for disease incidence and severity. Disease incidence was determined by counting the number of leaves infected. Disease severity was determined as the percentage of leaf surface infected with the disease. Analysis of Variance was calculated for both severity and incidence. Table 11 below describes the mean number of leaves found to be infected with powdery mildew for each treatment group on respective evaluation days. […] FIG. 15 is a graph illustrating the percentage of leaves infected in each treatment group. In FIG. 15, the individual bars within each treatment represent successive evaluations on days 1, 11, 21, 31, 41, 52, and 62.

CCCCCC1C(=O)CCC1CC(=O)OC (stereo not shown) [MDHJ, methyl dihydrojasmonate]
bioactivity relative to MJ (gene expression): only a small fraction of the bioactivity of MJ
proteinase (trypsin) inhibitor activity (trypsin inhibitor): enhanced proteinase inhibitor activity
enhancement of proteinase inhibitor activity compared with MJ (trypsin inhibitor; 5.0 mM): to a greater degree than MJ
activation of PPO (Polyphenol Oxidase (PPO)): activate PPO
signs of disease in seedlings (damping off disease): did not show signs of disease
proteinase inhibitor level compared with wounding response [1]: much greater level than the plant's natural response to wounding
PPO activity (Polyphenol Oxidase): increased PPO activity
elicitation of plant defenses (PPO) compared with MJ (Polyphenol Oxidase; field-grown roses, 5 mM, 44 hours): equal to or better than the levels seen after MJ application
concentration inducing benzo[c]phenanthridine alkaloid synthesis [2]: 10 µM
concentration relative to MJ required for the same effect [2]: five times the concentration of MJ required to produce the same effect
concentration at which more efficacious against aphids (aphids): more efficacious at the lower concentration of 1.5 mM
incidence of aphids on roses (aphids): reduced aphid counts
progression of powdery mildew incidence (powdery mildew): similarly effective in slowing the progression of powdery mildew incidence

CC/C=C\CC1C(=O)CCC1CC(=O)OC (stereo not shown) [MJ, methyl jasmonate, reference compound]
proteinase (trypsin) inhibitor activity (trypsin inhibitor): enhanced proteinase inhibitor activity
proteinase inhibitor level compared with wounding response [1]: much greater level than the plant's natural response to wounding
PPO activity (Polyphenol Oxidase): increased PPO activity
concentration at which more efficacious against aphids (aphids): more efficacious at the higher concentration of 5 mM
incidence of aphids on roses (aphids): reduced aphid counts
progression of powdery mildew incidence (powdery mildew): similarly effective in slowing the progression of powdery mildew incidence
